Experimental data from patent US20230271933A1, “HETEROCYCLIC IMMUNOMODULATOR” (Beijing Innocare Pharma Tech Co., Ltd., priority 2020, published 2023).

Biological target: hERG potassium ion channel (Homo sapiens, UniProt Q12809)
Experiment: Blockade of the hERG potassium ion channel (whole cell patch clamp)
Assay type: cell-based
Conditions: HEK293 cells stably overexpressing hERG, pH 7.4, tail current, read-out: The percentage of the inhibition to the hERG current at the solubility of 3 μM (n = 2)
Description: The effect of the compound of the present invention on possible arrhythmias was assessed by determining the blockade of the hERG potassium ion channel.
The experiment method was summarized as follows: • Extracellular fluid: 140 mM NaCl, 3.5 mM KCl, 1 mM MgCl2, 2 mM CaCl2, 10 mM D-glucose, 10 mM HEPES, 1.25 mM NaH2PO4, pH=7.4. • Electrode internal solution: 20 mM KCl, 115 mM K-aspartate, 1 mM MgCl2, 5 mM EGTA, 10 mM HEPES, 2 mM Na2-ATP, pH=7.2. • Compound solution: the compound to be tested was dissolved in DMSO and prepared into a stock solution having a concentration of 10 mM, then diluted into the concentration of 3 mM with DMSO, and then diluted into a solution having a concentration of 3 μM with the extracellular solution for subsequent use. • Cell culture: the HEK293 cell line with the stable hERG potassium channel overexpression (Creacell, Cat. No. A-0320) was cultured in a DMEM medium (Gibco, Cat. No. 11995-065) containing […] (Gibco, Cat. No. 1428478) and 0.8 mg/mL G418 (Amresco, Cat. No. E859-5G) at the culture temperature of 37° C. under the carbon dioxide concentration of […]. The spent medium was removed and the cells were washed once with PBS (Gibco, Cat. No. 1009-141). Then 1 mL TrypLE™ Express solution (Gibco, Cat. No. 12604021) was added and the cells were incubated at 37° C. […]. When the cells were detached from the bottom of the dish, 5 mL of complete medium preheated at 37° C. was added. The cell suspension was transferred to a sterile centrifuge tube and centrifuged at 1000 rpm for 5 minutes before cell collection. Cells were inoculated in 6 cm cell culture dishes at the cell inoculation volume of 2.5*10^5 per dish (final volume: 5 mL). Before the patch clamp detection experiment, 3*10^3 cells were plated on the cover slips, cultured in 24-well plates (final volume: 500 μL), and detected 18 hours later. • Voltage stimulation protocol by recording the whole-cell hERG potassium current with the whole cell patch clamp: after forming a whole-cell seal, the cell membrane voltage was clamped at −80 mV. The clamping voltage was depolarized from −80 mV to −50 mV and maintained for 0.5 seconds (as leakage current detection), then stepped to 30 mV and maintained for 2.5 seconds, then quickly returned to −50 mV and maintained for 4 seconds to excite the hERG channel tail current (Peak tail current), the hERG potassium current was recorded every other 10 seconds. Experiment data were collected with EPC-10 amplifier (HEKA) and stored in PatchMaster (HEKA v2x73) software. • Determination: A capillary glass tube (Sutter Instruments) was drawn into a recording electrode with a microelectrode drawing instrument (Sutter Instruments). The cell-loaded cover slip was removed from the 24-well plate placed in the incubator and then placed under an inverted microscope. […] In the whole-cell recording mode, the slow capacitance compensation was performed and the membrane capacitance and the series resistance were recorded, during which the leakage compensation was not applied. After the hERG tail current recorded with the whole cell was stabilized for 3-5 minutes, 8 mL of the compound-free extracellular fluid (blank control) and 8 mL of 3 μM solution of the compound to be tested were sequentially flowed through the recording bath with the gravity perfusion to act on the cells for 5 minutes (or to the current stabilization). The current detected for each cell in the compound-free extracellular fluid was served as its own control. […]

hERG potassium ion channel, sequence (Q12809 whole entry): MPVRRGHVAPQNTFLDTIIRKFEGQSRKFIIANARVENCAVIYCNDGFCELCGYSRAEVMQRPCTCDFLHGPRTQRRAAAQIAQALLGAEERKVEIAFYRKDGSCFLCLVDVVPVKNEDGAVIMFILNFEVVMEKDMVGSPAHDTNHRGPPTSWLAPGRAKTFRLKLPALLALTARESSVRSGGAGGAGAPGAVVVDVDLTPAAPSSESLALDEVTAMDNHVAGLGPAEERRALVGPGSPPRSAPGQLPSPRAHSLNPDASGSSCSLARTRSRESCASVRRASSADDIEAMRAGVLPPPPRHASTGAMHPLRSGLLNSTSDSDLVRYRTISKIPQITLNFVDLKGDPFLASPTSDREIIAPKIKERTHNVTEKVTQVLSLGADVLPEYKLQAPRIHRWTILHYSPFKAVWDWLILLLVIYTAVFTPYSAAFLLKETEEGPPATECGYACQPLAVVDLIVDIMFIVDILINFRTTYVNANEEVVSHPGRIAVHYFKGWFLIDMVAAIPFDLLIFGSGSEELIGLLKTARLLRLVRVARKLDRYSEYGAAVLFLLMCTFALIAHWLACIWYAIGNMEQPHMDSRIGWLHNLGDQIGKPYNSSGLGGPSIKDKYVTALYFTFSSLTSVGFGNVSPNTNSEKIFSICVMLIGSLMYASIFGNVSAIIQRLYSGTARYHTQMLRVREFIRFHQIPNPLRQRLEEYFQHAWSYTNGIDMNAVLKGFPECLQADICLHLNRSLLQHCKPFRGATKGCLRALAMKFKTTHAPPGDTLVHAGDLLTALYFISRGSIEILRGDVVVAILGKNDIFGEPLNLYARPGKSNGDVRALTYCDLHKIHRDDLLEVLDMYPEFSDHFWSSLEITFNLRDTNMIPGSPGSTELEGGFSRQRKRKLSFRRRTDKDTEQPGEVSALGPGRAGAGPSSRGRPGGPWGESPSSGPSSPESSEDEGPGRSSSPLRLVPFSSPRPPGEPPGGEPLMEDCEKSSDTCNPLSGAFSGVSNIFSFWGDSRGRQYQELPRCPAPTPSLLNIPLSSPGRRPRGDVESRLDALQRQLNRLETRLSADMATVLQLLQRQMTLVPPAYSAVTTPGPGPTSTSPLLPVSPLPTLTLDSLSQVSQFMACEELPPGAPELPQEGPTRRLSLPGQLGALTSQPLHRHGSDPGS

Compound: N#Cc1ccc(N2CCN(Cc3ccc(COc4cccc5c4CN([C@H]4CCC(=O)NC4=O)C5=O)cc3)CC2)c(F)c1 [CC-92480, reference compound]
- inhibition at 5 min, 3 µM: 76%
